Measured values published in patent US20110288093A1 (priority 2010, published 2011).
“Also recorded” adds a separate entry of the source.

Experiments:
cholera toxin (CTX) = test system: cholera toxin (CTX); set-up: species or system mice (CD1 strain); conditions: mouse, in vivo
[1] = test system: Calcium activated chloride conductance (CaCC); assay: Whole cell patch clamp recordings of CaCC in JME/CF15 cells; format: cell-based
Method: (§1) Compound 2 was tested in whole cell patch clamp recordings for its specific effect on the swelling-activated chloride conductance (VRAC), and the Calcium activated chloride conductance (CaCC). CaCC and VRAC were investigated in JME/CF15 cells. […] Effect of compound 2 was tested in 2 runs at 1 and 10 μM, respectively, on CaCC, and VRAC.
(§2) JME/CF15 cells (see Jefferson et al. “Expression of normal and cystic fibrosis phenotypes by continuous airway epithelial cell lines” Am J Physiol. (1990) 259:L496-L505) were cultured as described (see Schwarzer et al. “Organelle redox of CF and CFTR-corrected airway epithelia measured with roGFP1” Free Radic Biol Med. (2007) 43:300-316, incorporated herein by reference in its entirety) and were seeded onto glass cover slips at low density and used 1 to 2 days after seeding
(§3) Whole cell patch clamp experiments were performed as described (see Fischer et al. “Basolateral C1 channels in primary airway epithelial cultures” Am J Physiol Lung Cell Mol Physiol. (2007) 292:L1432-L1443, incorporated herein by reference in its entirety), the pipette solution contained (in mM): 140 HCl, 160 N-methyl-D-glucamine (NMDG), 1 MgCl2, 5 Hepes, 1 glucose, 5 MgATP, pH 7.4. To investigate VRAC, the pipette contained in addition 5 mM EGTA. To investigate CaCC, the intracellular free Ca concentration was buffered to ˜500 nM by adding 1.8 mM CaCl2 and 2 mM EGTA. […]

[2] = test system: swelling-activated chloride conductance (VRAC); assay: Whole cell patch clamp recordings of VRAC in JME/CF15 cells; format: cell-based
Method: as §1, §2, §3

[3] = 10 μM, 0% indicates complete block and 100% indicates no block
[4] = tested at 1 and 10 μM, block stronger at depolarizing (positive) potential

Structure (SMILES)	inhibition of CTX-induced fluid secretion (cholera toxin (CTX)) [%]	inhibition of fluid secretion (in words) (cholera toxin (CTX))	net fluid secretion (loop weight/loop length), CTX loop (cholera toxin (CTX))	current remaining in CaCC after the addition of compound [1, 3] [%]	block of CaCC (in words) [1, 4]	current remaining in VRAC [2, 3] [%]	block of VRAC (in words) [2, 4]
O=C(NCc1ccc(Oc2ccccc2)cc1)c1nc(-c2cc(Br)c(O)c(Br)c2)no1 [BF'032, 3-(3,5-dibromo-4-hydroxyphenyl)-N-(4-phenoxybenzyl)-1,2,4-oxadiazole-5-carboxamide]	90.16	statistically significant inhibition	0.06482 g/cm of loop				
O=S(=O)(Nc1cccc(-c2ccc(OCCc3ccc(Cl)cc3)nn2)c1)C(F)(F)F [compound 2, N-(3-(6-(4-chlorophenethoxy)pyridazin-3-yl)phenyl)-1,1,1-trifluoromethanesulfonamide]		statistically significant inhibition		64	blocks CaCC and that the block is voltage dependent; also recorded: blocked CaCC and the block was voltage dependent	23	blocks VRAC significantly and that the block is voltage dependent; also recorded: blocked VRAC significantly and the block was voltage dependent
